Experimental data taken from patent US10683282B2, “Multi-substituted pyrimidine derivatives with excellent kinase inhibitory activities” (KOREA INSTITUTE OF SCIENCE AND TECHNOLOGY, priority 2018, dated 2020).
pIC50: −log10 of the molar value.

Tests used:
Ba/F3 FLT3-ITD = Ba/F3 FLT3-ITD growth inhibition; assay type: cell-based; settings: Ba/F3 FLT3-ITD cells
[1] = Cytotoxicity test (cell counting kit-8), summary over respective cells; assay type: cell-based; settings: African green monkey, human, mouse, Chinese hamster, NIH3T3 and CHO-K1 cells; criterion 10 μM; VERO, HFL-1, L929, NIH3T3, CHO-K1
Description: (§1) Cell counting kit-8 assay is a general test method for identifying cell viability using a pale yellow tetrazolium salt called “WST-8”. WST-8, which is soluble in water, is degraded by a dehydrogenase present in the cells, forming orange formazan. Formazan dye is formed by dehydrogenase activity proportional to the number of viable cells, and thus can be used as an indicator for cell viability. The Hill equation of Graphpad Prism was used for analysis.

human CYP isozymes = assay: CYP450 assay, summary over human CYP isozymes; assay type: in vitro ADME; settings: 10 μM
Procedure: (§2) Compound 5 and a positive control stock solution were diluted with water to prepare a 40 μM working solution, and a solution containing an enzyme and a substrate was prepared using water and buffer. Compound 5/control/positive control and the solution were each dispensed on a 96-well and preincubated at 37° C. for 10 minutes. The resulting substance was reacted with NADPH for 20 minutes at 37° C. and a detection reagent was added to terminate the reaction. After stabilization at room temperature for 20 minutes, a luminescence signal was measured.

CYP 3A4 = CYP 3A4 (Homo sapiens, UniProt P08684); assay: CYP450 assay (luminescence); assay type: in vitro ADME; settings: CYP 3A4 enzyme with substrate, compound at 10 μM, read-out: inhibitory activity against human CYP 3A4
Procedure: as §2

CYP 1A2 = CYP 1A2 (Homo sapiens, UniProt P05177); assay: CYP450 assay (luminescence); assay type: in vitro ADME; settings: human, CYP 1A2 enzyme with substrate; compound at 10 μM; read-out: inhibitory activity against human CYP 1A2
Procedure: as §2

CYP 2D6 = CYP 2D6 (Homo sapiens, UniProt P10635); assay: CYP450 assay (luminescence); assay type: in vitro ADME; settings: CYP 2D6 enzyme with substrate, compound at 10 μM, read-out: inhibitory activity against human CYP 2D6
Procedure: (§3) The resulting substance was reacted with NADPH for 20 minutes at 37° C. and a detection reagent was added to terminate the reaction. After stabilization at room temperature for 20 minutes, a luminescence signal was measured.

CYP 2C9 = CYP 2C9 (Homo sapiens, UniProt P11712); assay: CYP450 assay (luminescence); assay type: in vitro ADME; settings: CYP 2C9 enzyme with substrate, compound at 10 μM, read-out: inhibitory activity against human CYP 2C9
Procedure: as §3

CYP 2C19 = CYP 2C19 (Homo sapiens, UniProt P33261); assay: CYP450 assay (luminescence); assay type: in vitro ADME; settings: CYP 2C19 enzyme with substrate, compound at 10 μM, read-out: inhibitory activity against human CYP 2C19
Procedure: as §3

CHO-K1 = assay: Cytotoxicity test (cell counting kit-8); assay type: cell-based, Chinese hamster; settings: Cricetulus griseus, WST-8
Description: as §1

NIH3T3 = assay: Cytotoxicity test (cell counting kit-8); assay type: cell-based; settings: Mus musculus, WST-8
Description: as §1

HFL-1 = assay: Cytotoxicity test (cell counting kit-8); assay type: cell-based; settings: Homo sapiens, HFL1, WST-8
Description: as §1

L929 = assay: Cytotoxicity test (cell counting kit-8); assay type: cell-based; settings: Mus musculus, WST-8
Description: as §1

hERG K+ channel = hERG K+ channel (Homo sapiens, UniProt Q12809); assay: hERG K+ channel binding assay (fluorescence polarization)
Procedure: The hERG tracer and membranes were dissolved at room temperature before use, the tracer and hERG assay buffer were diluted at 1:62.5 and a test substance was diluted to 40 μM with assay buffer. 5 μL of the test substance, a positive control (astemizole or E-4031) and a negative control (DMSO) were dispensed into a 384-well plate, the membranes are dispensed at 10 μL using a multi-pipette and 5 μl of the tracer was dispensed. The light was blocked and incubated at 25° C. for 2 to 3 hours. Then, polarization was measured using a TECAN plate reader (Infinite M1000 pro).

FLT3 = biological target: T1, FLT3 (Homo sapiens, UniProt P36888); assay: Kinase screening, HotSpot assay (Reaction Biology); assay type: biochemical
T1 construct: purchased Reaction Biology Corporation
T1 sequence (P36888 27-993): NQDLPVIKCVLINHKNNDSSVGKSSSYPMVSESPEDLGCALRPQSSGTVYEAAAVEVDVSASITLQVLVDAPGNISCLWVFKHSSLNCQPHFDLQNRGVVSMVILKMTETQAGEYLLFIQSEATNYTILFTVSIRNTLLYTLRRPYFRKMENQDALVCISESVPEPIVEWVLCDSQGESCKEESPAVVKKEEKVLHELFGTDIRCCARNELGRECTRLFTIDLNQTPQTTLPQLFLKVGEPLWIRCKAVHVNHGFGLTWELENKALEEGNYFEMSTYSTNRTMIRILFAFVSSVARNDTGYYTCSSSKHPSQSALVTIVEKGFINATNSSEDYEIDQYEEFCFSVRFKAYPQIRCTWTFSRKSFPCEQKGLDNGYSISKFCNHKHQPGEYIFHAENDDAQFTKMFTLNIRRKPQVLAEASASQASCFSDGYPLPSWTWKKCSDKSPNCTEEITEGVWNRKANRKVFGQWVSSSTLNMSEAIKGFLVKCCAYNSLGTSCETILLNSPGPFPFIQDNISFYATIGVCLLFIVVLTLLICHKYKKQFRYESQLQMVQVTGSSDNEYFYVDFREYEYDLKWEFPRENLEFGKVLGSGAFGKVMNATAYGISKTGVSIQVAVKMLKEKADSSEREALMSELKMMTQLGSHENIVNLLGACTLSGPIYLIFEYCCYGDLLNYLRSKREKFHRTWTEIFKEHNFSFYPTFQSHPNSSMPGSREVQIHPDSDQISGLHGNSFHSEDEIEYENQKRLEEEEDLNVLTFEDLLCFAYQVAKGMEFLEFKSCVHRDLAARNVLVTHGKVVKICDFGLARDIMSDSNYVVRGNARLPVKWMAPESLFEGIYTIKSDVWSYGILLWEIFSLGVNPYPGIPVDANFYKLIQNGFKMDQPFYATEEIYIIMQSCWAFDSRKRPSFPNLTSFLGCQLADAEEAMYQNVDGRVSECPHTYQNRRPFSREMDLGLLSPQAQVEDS
Procedure: Kinase screening was performed using a “HotSpot” assay platform method by Reaction Biology Corporation. The reaction buffer used herein contained 20 mM HEPES (pH 7.5), 10 mM MgCl2, 1 mM EGTA, 0.02% Brij35, 0.02 mg/mL BSA, 0.1 mM Na3VO4, 2 mM DTT and 1% DMSO. The required cofactors were added in accordance with the kinase reaction. Freshly made buffer and cofactors were added at a concentration of 20 μM during the selected enzyme reaction. A solution of the test compound in dimethylsulfoxide (DMSO) was added at a suitable concentration to this solution.

Chain of hERG K+ channel (Q12809 whole entry): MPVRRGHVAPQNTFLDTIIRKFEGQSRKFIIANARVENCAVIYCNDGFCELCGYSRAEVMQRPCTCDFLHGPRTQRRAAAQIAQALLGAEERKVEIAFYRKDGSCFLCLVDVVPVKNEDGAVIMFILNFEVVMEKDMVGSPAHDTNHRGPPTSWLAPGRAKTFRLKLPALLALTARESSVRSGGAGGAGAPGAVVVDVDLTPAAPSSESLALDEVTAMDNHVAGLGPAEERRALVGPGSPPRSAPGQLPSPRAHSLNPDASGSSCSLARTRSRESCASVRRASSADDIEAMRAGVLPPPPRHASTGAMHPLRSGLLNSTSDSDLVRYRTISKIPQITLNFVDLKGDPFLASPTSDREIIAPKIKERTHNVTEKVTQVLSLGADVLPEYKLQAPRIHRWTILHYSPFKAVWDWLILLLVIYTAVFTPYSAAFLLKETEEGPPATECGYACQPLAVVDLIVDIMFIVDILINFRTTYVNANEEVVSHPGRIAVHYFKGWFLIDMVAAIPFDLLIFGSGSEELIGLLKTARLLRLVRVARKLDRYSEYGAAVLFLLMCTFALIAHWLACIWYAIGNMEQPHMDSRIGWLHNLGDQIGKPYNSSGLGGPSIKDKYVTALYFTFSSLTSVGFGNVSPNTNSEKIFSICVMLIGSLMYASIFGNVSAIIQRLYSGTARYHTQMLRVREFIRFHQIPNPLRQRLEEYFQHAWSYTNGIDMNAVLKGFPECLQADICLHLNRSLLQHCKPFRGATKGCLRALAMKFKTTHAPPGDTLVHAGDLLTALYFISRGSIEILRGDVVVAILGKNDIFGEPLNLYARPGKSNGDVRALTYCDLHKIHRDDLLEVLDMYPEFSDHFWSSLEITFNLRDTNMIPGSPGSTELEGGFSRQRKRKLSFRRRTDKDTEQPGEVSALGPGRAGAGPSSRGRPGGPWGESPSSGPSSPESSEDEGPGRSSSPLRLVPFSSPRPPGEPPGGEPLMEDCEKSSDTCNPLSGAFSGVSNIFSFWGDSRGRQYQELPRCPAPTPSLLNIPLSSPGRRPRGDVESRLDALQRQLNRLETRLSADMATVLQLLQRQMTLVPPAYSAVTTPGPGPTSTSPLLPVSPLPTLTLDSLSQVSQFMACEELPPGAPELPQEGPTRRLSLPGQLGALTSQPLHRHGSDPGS
Chain of CYP 2D6 (P10635 whole entry): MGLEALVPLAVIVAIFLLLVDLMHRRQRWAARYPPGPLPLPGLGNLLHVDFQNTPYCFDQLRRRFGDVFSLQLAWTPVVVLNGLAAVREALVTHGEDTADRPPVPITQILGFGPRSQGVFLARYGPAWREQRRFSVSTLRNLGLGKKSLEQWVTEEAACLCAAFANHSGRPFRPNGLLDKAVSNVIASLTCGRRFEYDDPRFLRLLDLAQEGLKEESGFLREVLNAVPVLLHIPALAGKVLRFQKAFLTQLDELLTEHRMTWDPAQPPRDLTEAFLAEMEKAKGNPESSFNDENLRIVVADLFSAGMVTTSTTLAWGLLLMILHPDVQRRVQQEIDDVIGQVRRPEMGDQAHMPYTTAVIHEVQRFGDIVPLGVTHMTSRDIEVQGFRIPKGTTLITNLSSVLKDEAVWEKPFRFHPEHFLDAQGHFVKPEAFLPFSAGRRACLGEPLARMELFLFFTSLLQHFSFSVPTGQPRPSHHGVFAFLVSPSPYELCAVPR
Chain of CYP 1A2 (P05177 whole entry): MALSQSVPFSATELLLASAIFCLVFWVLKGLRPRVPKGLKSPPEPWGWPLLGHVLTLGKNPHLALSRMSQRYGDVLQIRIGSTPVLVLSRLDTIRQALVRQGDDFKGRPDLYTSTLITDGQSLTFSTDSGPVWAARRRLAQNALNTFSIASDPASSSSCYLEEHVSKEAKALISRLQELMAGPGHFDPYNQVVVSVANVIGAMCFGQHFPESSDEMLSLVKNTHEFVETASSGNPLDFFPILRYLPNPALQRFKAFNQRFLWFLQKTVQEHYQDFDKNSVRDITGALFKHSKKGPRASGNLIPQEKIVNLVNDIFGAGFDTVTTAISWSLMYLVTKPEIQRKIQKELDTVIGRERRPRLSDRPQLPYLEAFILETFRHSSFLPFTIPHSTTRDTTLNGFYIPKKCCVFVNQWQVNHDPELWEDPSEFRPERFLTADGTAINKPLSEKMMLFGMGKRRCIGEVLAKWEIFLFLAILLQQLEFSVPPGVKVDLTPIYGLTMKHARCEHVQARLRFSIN
Chain of CYP 2C19 (P33261 whole entry): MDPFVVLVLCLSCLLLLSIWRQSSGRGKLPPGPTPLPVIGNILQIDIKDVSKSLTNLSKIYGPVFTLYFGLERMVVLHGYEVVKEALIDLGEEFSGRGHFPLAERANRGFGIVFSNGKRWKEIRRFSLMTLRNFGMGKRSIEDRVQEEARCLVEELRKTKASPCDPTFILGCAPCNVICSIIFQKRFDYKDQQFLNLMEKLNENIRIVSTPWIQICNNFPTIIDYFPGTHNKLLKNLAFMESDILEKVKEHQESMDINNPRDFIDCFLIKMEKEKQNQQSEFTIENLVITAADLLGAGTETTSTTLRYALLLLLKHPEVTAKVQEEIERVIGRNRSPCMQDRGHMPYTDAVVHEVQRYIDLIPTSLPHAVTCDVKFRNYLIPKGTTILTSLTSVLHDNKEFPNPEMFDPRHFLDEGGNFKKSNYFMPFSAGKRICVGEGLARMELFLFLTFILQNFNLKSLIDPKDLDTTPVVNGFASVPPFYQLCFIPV
Chain of CYP 2C9 (P11712 whole entry): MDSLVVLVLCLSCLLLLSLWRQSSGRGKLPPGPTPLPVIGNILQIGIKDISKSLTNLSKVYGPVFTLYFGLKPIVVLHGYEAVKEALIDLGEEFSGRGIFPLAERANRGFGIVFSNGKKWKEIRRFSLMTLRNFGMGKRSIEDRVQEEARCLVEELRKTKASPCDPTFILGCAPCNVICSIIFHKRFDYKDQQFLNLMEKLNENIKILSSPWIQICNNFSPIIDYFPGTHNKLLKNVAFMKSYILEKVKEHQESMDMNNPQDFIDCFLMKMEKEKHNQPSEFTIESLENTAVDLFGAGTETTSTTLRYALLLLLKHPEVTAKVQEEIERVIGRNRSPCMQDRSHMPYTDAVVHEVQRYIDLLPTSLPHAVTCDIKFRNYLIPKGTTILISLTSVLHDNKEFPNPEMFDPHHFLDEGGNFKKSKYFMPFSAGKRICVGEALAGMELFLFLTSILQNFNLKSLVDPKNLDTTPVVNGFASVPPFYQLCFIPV
Chain of CYP 3A4 (P08684 whole entry): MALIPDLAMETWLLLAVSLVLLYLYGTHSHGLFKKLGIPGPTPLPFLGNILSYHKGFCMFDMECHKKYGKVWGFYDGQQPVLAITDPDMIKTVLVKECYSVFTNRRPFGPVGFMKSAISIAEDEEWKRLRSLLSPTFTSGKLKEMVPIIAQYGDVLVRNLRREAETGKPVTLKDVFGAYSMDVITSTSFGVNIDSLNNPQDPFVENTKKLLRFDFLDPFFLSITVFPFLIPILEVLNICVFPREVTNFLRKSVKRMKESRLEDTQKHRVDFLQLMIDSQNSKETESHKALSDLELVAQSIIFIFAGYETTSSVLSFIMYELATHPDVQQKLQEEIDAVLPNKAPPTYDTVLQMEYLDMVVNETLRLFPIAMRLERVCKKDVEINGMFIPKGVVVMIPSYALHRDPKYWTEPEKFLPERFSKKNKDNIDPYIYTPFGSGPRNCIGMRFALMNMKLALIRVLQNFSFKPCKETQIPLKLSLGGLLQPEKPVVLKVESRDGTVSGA

GI50 (Ba/F3 FLT3-ITD): 0.042 µM
CYP inhibition conclusion (more than 50% inhibition needs attention) (human CYP isozymes): stable
inhibition at 20 min, 10 µM (CYP 3A4): 22.1%
inhibition at 20 min, 10 µM (CYP 1A2): 1.93%
inhibition at 20 min, 10 µM (CYP 2D6): 14.4%
inhibition at 20 min, 10 µM (CYP 2C9): < 1%
inhibition at 20 min, 10 µM (CYP 2C19): 15.9%
pIC50 (FLT3): 8.54
Structure (SMILES): Clc1cnc(Nc2ccc(OCCN3CCCC3)cc2)nc1NCc1ccco1 [Compound 5, 5-chloro-4-(furan-2-yl)methylamino-2-[4-{2-(pyrrolidin-1-yl)ethoxy}phenylamino]pyrimidine]
pIC50 [1]: ≤ 5.00
IC50 (CHO-K1): > 100 µM
IC50 (NIH3T3): > 100 µM
IC50 (HFL-1): 35.6 µM
IC50 (L929): 40.3 µM
hERG K+ channel binding as indicator of toxicity in the heart, conclusion (hERG K+ channel): stable in the heart
pIC50 (hERG K+ channel; concentrations 0.01, 0.1, 1, 2, 5, 10, 20, 50 μM): 4.82
